Reference: US10703764B2, “Benzopiperazine compositions as BET bromodomain inhibitors” (FORMA Therapeutics, Inc., priority 2013, dated 2020)
pIC50: −log10 of the molar value.

Columns and labels:
BRD4 BD1 = target: T1, BRD4 BD1 (Homo sapiens, UniProt O60885); assay: AlphaScreen binding assay, BRD4 Bromodomain 1
T1 construct: made in house
Method in brief: (§1)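 Compound dilution series were mixed with His-tagged BRD4 bromodomain and biotinylated tetra-acetylated H4 (1-21) peptide at pH 7.3 (BD1 and peptide at 50 nM, BD2 and peptide at 100 nM). Donor and acceptor beads were then added, and plates were equilibrated at least 1 h before reading. IC50 values were fitted with a four-parameter logistic model.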

BRD4 BD2 = target: T2, BRD4 BD2 (Homo sapiens, UniProt O60885); assay: AlphaScreen binding assay, BRD4 Bromodomain 2
T2 construct: made in house
Method in brief: as §1

| pIC50 (BRD4 BD1) | pIC50 (BRD4 BD2) | SMILES |
| --- | --- | --- |
| < 5.00 | < 6.30 | CC(=O)N1c2ccccc2N(C(=O)c2cccs2)C[C@@H]1C [Example I-745] |
| < 5.00 | < 6.30 | CC(=O)N1c2ccccc2N(C(=O)c2cc3ccccc3s2)C[C@@H]1C [Example I-746] |
| < 5.00 | < 6.30 | COc1cscc1C(=O)N1C[C@H](C)N(C(C)=O)c2ccccc21 [Example I-747] |
| < 5.00 | < 6.30 | CC(=O)N1c2ccccc2N(C(=O)c2cc3ccccc3n2C)C[C@@H]1C [Example I-748] |
| < 5.00 | < 6.30 | CC(=O)N1c2ccccc2N(C(=O)c2cc(C)oc2C)C[C@@H]1C [Example I-749] |
| < 5.00 | < 6.30 | CC(=O)N1c2ccccc2N(C(=O)c2cc(C)c(C)o2)C[C@@H]1C [Example I-750] |
| < 5.00 | < 6.30 | CC(=O)N1c2ccccc2N(C(=O)c2cc3ccccc3o2)C[C@@H]1C [Example I-751] |
| < 5.00 | < 6.30 | CC(=O)N1c2ccccc2N(C(=O)c2cnc3ccccc3c2)C[C@@H]1C [Example I-752] |
| < 5.00 | < 6.30 | COc1cc(C(=O)N2C[C@H](C)N(C(C)=O)c3ccccc32)nc2ccccc12 [Example I-753] |
| < 5.00 | < 6.30 | CC(=O)N1c2ccccc2N(C(=O)c2ccnc3ccccc23)C[C@@H]1C [Example I-754] |
| < 5.00 | < 6.30 | CC(=O)N1c2ccccc2N(C(=O)c2cc(C)n(C)n2)C[C@@H]1C [Example I-755] |
| < 5.00 | < 6.30 | CC(=O)N1c2ccccc2N(C(=O)c2cnn(-c3ccccc3)c2C(F)(F)F)C[C@@H]1C [Example I-756] |
| < 5.00 | < 6.30 | CC(=O)N1c2ccccc2N(C(=O)c2snnc2C)C[C@@H]1C [Example I-757] |
| < 5.00 | < 6.30 | COc1ncccc1C(=O)N1C[C@H](C)N(C(C)=O)c2ccccc21 [Example I-758] |
| < 5.00 | < 6.30 | CC(=O)N1c2ccccc2N(C(=O)c2cc3cc(Cl)ccc3o2)C[C@@H]1C [Example I-759] |
| < 5.00 | < 6.30 | CC(=O)N1c2ccccc2N(C(=O)c2ccc3cc[nH]c3c2)CC1C (stereo not drawn) [Example I-760] |
| < 5.00 | < 6.30 | CC(=O)N1c2ccccc2N(C(=O)c2csc(C(F)(F)F)n2)C[C@@H]1C [Example I-761] |
| < 5.00 | < 6.30 | CC(=O)N1c2ccccc2N(C(=O)CC2CCN(S(C)(=O)=O)CC2)C[C@@H]1C [Example I-762] |
| < 5.00 | < 6.30 | CC(=O)N1c2ccccc2N(C(=O)c2ccc(F)cn2)C[C@@H]1C [Example I-763] |
| < 5.00 | < 6.30 | CC(=O)N1c2ccccc2N(C(=O)CN2CCCCCC2=O)C[C@@H]1C [Example I-764] |
| < 5.00 | < 6.30 | CC(=O)N1c2ccccc2N(C(=O)CCN2CCCCCC2=O)C[C@@H]1C [Example I-765] |
| < 5.00 | < 6.30 | CC(=O)N1c2ccccc2N(C(=O)Cn2cnc3ccccc32)C[C@@H]1C [Example I-766] |
| < 5.00 | < 6.30 | CC(=O)N1c2ccccc2N(C(=O)CN2CCS(=O)(=O)CC2)C[C@@H]1C [Example I-767] |
| < 5.00 | < 6.30 | CC(=O)N1c2ccccc2N(C(=O)c2c(C)noc2C)C[C@@H]1C [Example I-768] |

| pIC50 (BRD4 BD1) | pIC50 (BRD4 BD2) | SMILES |
| --- | --- | --- |
| < 5.00 | < 6.30 | CC(=O)N1c2ccccc2N(C(=O)Cc2nc(-c3ccccc3)oc2C)C[C@@H]1C [Example I-769] |
| < 5.00 | < 6.30 | CC(=O)N1c2ccccc2N(C(=O)c2cccc3[nH]ccc23)CC1C (stereo not drawn) [Example I-770] |
| < 5.00 | < 6.30 | CC(=O)N1c2ccccc2N(C(=O)c2cc3ccccn3n2)C[C@@H]1C [Example I-771] |
| < 5.00 | < 6.30 | CC(=O)N1c2ccccc2N(C(=O)COCC(C)C)C[C@@H]1C [Example I-772] |
| < 5.00 | < 6.30 | CC(=O)N1c2ccccc2N(C(=O)c2cnn3c2OCCC3)C[C@@H]1C [Example I-773] |
| < 5.00 | < 6.30 | CC(=O)N1c2ccccc2N(C(=O)c2cc3n(n2)CCC3)C[C@@H]1C [Example I-774] |
| < 5.00 | < 6.30 | CC(=O)N1c2ccccc2N(C(=O)c2cc3ccncc3s2)C[C@@H]1C [Example I-775] |
| < 5.00 | < 6.30 | CC(=O)N1c2ccccc2N(C(=O)c2ccc3nccn3c2)C[C@@H]1C [Example I-776] |
| < 5.00 | < 6.30 | CC(=O)N1c2ccccc2N(C(=O)c2cc3ccncc3o2)C[C@@H]1C [Example I-777] |
| < 5.00 | < 6.30 | CC(=O)N1c2ccc(-c3ccc(S(C)(=O)=O)cc3)cc2N(C(=O)c2cn3ccncc3n2)C[C@@H]1C [Example I-779] |
| < 5.00 | 6.30 to 7.30 | CC(=O)N1c2ccc(-c3ccc(S(C)(=O)=O)cc3)cc2N(C(=O)c2ccccn2)C[C@@H]1C [Example I-782] |
| 5.00 to 6.00 | < 6.30 | CC(=O)N1c2ccc(-c3ccc(S(C)(=O)=O)cc3)cc2N(C(=O)c2csnn2)C[C@@H]1C [Example I-783] |
| < 5.00 | < 6.30 | CC(=O)N1c2ccc(-c3ccc(S(C)(=O)=O)cc3)cc2N(C(=O)c2nccn2C)C[C@@H]1C [Example I-784] |
| 5.00 to 6.00 | 6.30 to 7.30 | CC(=O)N1c2ccc(-c3ccc(S(C)(=O)=O)cc3)cc2N(C(=O)c2cc3cc(Cl)ccc3[nH]2)CC1C (stereo not drawn) [Example I-785] |
| 5.00 to 6.00 | 6.30 to 7.30 | CC(=O)N1c2ccc(-c3ccc(S(C)(=O)=O)cc3)cc2N(C(=O)c2cc3ccc(Cl)cc3[nH]2)CC1C (stereo not drawn) [Example I-787] |
| < 5.00 | < 6.30 | CC(=O)N1c2ccc(-c3ccc(S(C)(=O)=O)cc3)cc2N(C(=O)c2cc3cc(OC(F)(F)F)ccc3[nH]2)CC1C (stereo not drawn) [Example I-788] |
| < 5.00 | < 6.30 | CC(=O)N1c2ccc(-c3ccc(S(C)(=O)=O)cc3)cc2N(C(=O)c2oc3ccccc3c2-c2ccccc2)C[C@@H]1C [Example I-790] |
| < 5.00 | < 6.30 | CC(=O)N1c2ccc(-c3ccc(-c4ccccc4)cc3)cc2N(C(=O)COc2ccccc2)C[C@@H]1C [Example I-797] |
| 5.00 to 6.00 | > 7.30 | CC(=O)N1c2ccc(-c3cccc(C(=O)NC4CC4)c3)cc2N(C(=O)c2ccco2)C[C@@H]1C [Example I-802] |
| 5.00 to 6.00 | 6.30 to 7.30 | CC(=O)N1c2ccc(-c3ccc(-n4cccn4)cc3)cc2N(C(=O)c2ccco2)C[C@@H]1C [Example I-803] |
| 5.00 to 6.00 | 6.30 to 7.30 | CC(=O)N1c2ccc(-c3ccc(Cl)cc3)cc2N(C(=O)c2ccco2)C[C@@H]1C [Example I-805] |
| 5.00 to 6.00 | 6.30 to 7.30 | CC(=O)N1c2ccc(-c3ccc(OC(F)(F)F)cc3)cc2N(C(=O)c2ccco2)C[C@@H]1C [Example I-808] |
| 5.00 to 6.00 | > 7.30 | CC(=O)N1c2ccc(-c3ccc(C#N)cc3)cc2N(C(=O)c2ccco2)C[C@@H]1C [Example I-811] |
| 5.00 to 6.00 | > 7.30 | CC(=O)N1c2ccc(-c3cccc(C#N)c3)cc2N(C(=O)c2ccco2)C[C@@H]1C [Example I-812] |
